Reference: patent US11035008B2, “Biomarkers for cancer” (BERGENBIO ASA, priority 2015, dated 2021)
“Also recorded” adds a separate entry of the source.

Legend:
[1] = test system: totAxl; test: Total Axl in AML cell panel, long-term treatment, flow cytometry; type: cell-based, human
Method: (§1) Staining of Cells for Flow Cytometry, General Protocol: • Live cells were centrifuged at 300 G for 5 minutes, washed once with PBS and centrifuged again. Cells were then fixed in 4% PFA in PBS for 10 minutes at 37° C., and resuspended in PBS. Unless processed immediately, samples were at this point stored in PBS at 4° C. (up to three weeks) or at −80° C. (for long-term storage). If intracellular epitopes were stained, cells were permebealized in 90% MeOH for 30 minutes on ice. Unless processed immediately, samples were also be stored in 90% MeOH at −20° C. for up to two months. • Further staining procedure (permebealized or non-permebealized cells): • Cells were washed 1× in PBS and blocked in blocking buffer; either PBS+0.5% BSA or PBS+1:1000 Octagam (5 mg/ml) for 15 minutes at room temperature. Thereafter, cells were incubated with primary AB at the indicated dilutions in incubation buffer (IB, PBS+0.5% BSA) for 1 hour at room temperature. Cells were then washed 3× with IB and incubated with secondary AB (conjugated to a fluorescent flurophore) at 1:1000 dilution in IB for 30 minutes at room temperature. Finally, cells were washed 3× in IB and resuspended in PBS. Cells were analyzed immediately, or stored for up to 24 hours at 4° C. before analysis. • Analysis of cells was done on a BD LSR Fortessa or a BD C6 Accuri flow cytometer, and further processing was done using FlowJo v.7.6. • All incubation steps (but not storage) were done on a spinning wheel or gentle shaker.
(§2) The diversity of AML cells and their responses was investigated using a panel of AML cell lines and assessing their responses after BGB324-treatment.
(§3) Long-term treatment was done in complete medium, without starvation. The responders were treated with 0.05, 0.1 or 0.3 μM BGB324, whereas the non-responders were treated with only a single dose of 2.5 μM BGB324. The cells were fixed after 24, 48 or 72 hours, and the samples were stored in 90% MeOH at −20° C. until all samples were harvested, and stained for flow at the same time.

[2] = test system: Axl(Y779); test: pAxl(Y779) in blood of healthy volunteers treated ex vivo; type: cell-based, human; conditions: blood of two healthy volunteers, 1 μM, 30 minutes ex vivo
Method: Staining of Blood for Flow Cytometry, General Protocol: • Human blood from healthy donors was collected in the presence of sodium citrate and mixed with 20 volumes of pre-warmed BD phosflow lyse/fix buffer (diluted to 1× in destilled water), followed by incubation in 37° C. water bath for 10 minutes. Cells were spun at 500 g for 8 minutes and washed once with PBS. • Cells were permebilized by adding 70% MeOH followed by 30 min incubation on ice. Unless processed immediately, samples were at this point stored in MeOH at −20° C. for up to 4 weeks. • Staining of permeabilized cells: • Cells were spun at 600 g, washed twice and resuspended in IB. Cells were aliquoted into volums corresponding to 100 ul collected blood (before dilution), and stained as described above (section two in “Staining of cells for flow cytometry, general protocol”). • All washing and incubation steps were done on a spinning wheel or gentle shaker.
Blood samples from BGB324-treated individuals were not available, so BGB324-treatment was simulated by incubating fresh unfixed blood samples with 1 μM BGB324 for 30 minutes before fixation. Thereafter, samples were fixed, permebealized, and stained for flow with pAxl and pAkt antibodies to examine whether we could see a response to BGB324-treatment in these biomarkers (see FIG. 7). Phosphatase-treated cells were included as a negative staining control. […]

[3] = test system: totPHGDH; test: Total PHGDH in AML cell panel, long-term treatment, flow cytometry; type: cell-based, human
Method: as §1, §2, §3

[4] = test system: pAkt; test: pAkt in CD33-positive cells, MOLM13 systemic xenograft model, flow cytometry; type: in vivo, mice; conditions: both tissues (spleens and bone marrows), 50 mg/kg for 4 days; change not significant
Method: (§4) Material from an in vivo MOLM13 systemic model was also evaluated by flow cytometry. Expression of the previously evaluated biomarkers was examined in cells isolated from bone marrows and spleens of animals with systemic AML disease (MOLM13, inoculated for 7 days prior to treatment) treated with BGB324 at 50 mg/kg for 4 days. The spleens analysed were from the same study that was analysed by microarray, as mentioned above. The bone marrows were from an identical study that was done at a later time point to get more material for flow analyses.
(§5) Cells isolated from spleens and bone marrows were assessed for phosphorylation of Erk, PLCγ1 and Akt, and expression of PHGDH and SLFN11. The samples were also co-stained with CD33, and biomarker expression was only evaluated in CD33-positive cells.

[5] = test system: PHGDH; test: PHGDH in CD33-positive cells, MOLM13 systemic xenograft model, flow cytometry; type: in vivo, mice; conditions: 50 mg/kg for 4 days
Method: as §4, §5

[6] = test system: PHGDH; test: Microarray analysis of xenograft material, PHGDH transcript; type: in vivo, mice
Text: PHGDH was included in the biomarker panel following microarray analysis of Mv4-11 and MOLM13 xenograft material after BGB324-treatment.

[7] = test system: pErk; test: pErk in CD33-positive cells, MOLM13 systemic xenograft model, flow cytometry; type: in vivo, mice; conditions: 50 mg/kg for 4 days
Method: as §4, §5

[8] = test system: totErk; test: Total Erk in AML cell panel, long-term treatment, flow cytometry; type: cell-based, human
Method: as §1, §2, §3

[9] = test system: pPLCγ1; test: pPLCγ1 in CD33-positive cells, MOLM13 systemic xenograft model, flow cytometry; type: in vivo, mice; conditions: 50 mg/kg for 4 days
Method: as §4, §5

[10] = test system: SLFN11; test: Microarray analysis of xenograft material, SLFN11 transcript; type: in vivo, mice
Text: Slfn11 was included in the biomarker panel following microarray analysis of Mv4-11 and MOLM13 xenograft material after BGB324-treatment.

[11] = Mv4-11 subcutaneous xenograft, 14 days of treatment

Nc1nc(Nc2ccc3c(c2)CC[C@@H](N2CCCC2)CC3)nn1-c1cc2c(nn1)-c1ccccc1CCC2 [BGB324, 1-(6,7-dihydro-5H-benzo[6,7]cyclohepta[1,2-c]pyridazin-3-yl)-N3-((7-(S)-pyrrolidin-1-yl)-6,7,8,9-tetrahydro-5H-benzo[7]annulene-2-yl)-1H-1,2,4-triazole-3,5-diamine]
Axl expression ([1]; Kasumi, 2.5 μM, 24-72 hours): goes significantly up | Axl expression ([1]; MOLM13, 0.3 μM, 24 hours): slight and significant reduction of Axl | Axl expression ([1]; Mv4-11, 0.3 μM, 24 hours and 72 hours): slight and significant reduction of Axl | Axl expression ([1]; OCI-AML5, 2.5 μM, 24-72 hours): goes significantly up | reduction of pAxl(Y779) ([2]; gated Axl-positive cells): ~20% | reduction of pAxl ([2]; whole live cell population): around 20% | PHGDH expression ([3]; Kasumi, 2.5 μM, significant at 24 hours): increase in PHGDH expression | total protein expression of PHGDH ([3]; MOLM13, 24, 48 and 72 hours): no significant changes | total protein expression of PHGDH ([3]; Mv4-11, 0.3 uM, 24 and 72 hours): significant reduction of PHGDH | PHGDH expression ([3]; OCI-AML5, 2.5 μM, significant in all time points): increase in PHGDH expression | pAkt [4]: went down | PHGDH expression ([5]; bone marrows): significant reduction | PHGDH expression ([5]; spleens): significant reduction | PHGDH transcript (microarray) ([6]; MOLM13 systemic xenograft model, spleen and bone marrow): significantly downregulated; also recorded: significantly reduced | PHGDH transcript (microarray) [6, 11]: one of the most significantly downregulated transcripts; also recorded: significantly downregulated | PHGDH transcript alteration after treatment (microarray) ([6]; both Mv4-11 subcutaneous and MOLM13 systemic xenograft models): more than 1.5 fold | pErk ([7]; bone marrows): significant reduction | pErk ([7]; spleens): significant reduction | Erk expression ([8]; Kasumi, 2.5 μM, significant at 48 and 72 hours): reduction of Erk expression | Erk expression ([8]; MOLM13, 0.3 μM, 48 and 72 hours): normalized to control-levels | Erk expression ([8]; MOLM13, 0.3 μM, 24 hours): slight, but significant, reduction of Erk expression | Erk expression ([8]; Mv4-11, 0.3 μM, 24, 48 and 72 hours): gradual reduction of Erk expression | Erk expression ([8]; Mv4-11, 0.3 μM, 48 and 72 hours): significantly lower than control cells | Erk expression ([8]; OCI-AML5, 2.5 μM, significant at 24 and 48 hours): reduction of Erk expression | pPLCγ1 ([9]; bone marrows): significant reduction | pPLCγ1 ([9]; spleens): significant reduction | SLFN11 transcript (microarray) ([10]; MOLM13 systemic xenograft model): not significantly reduced | SLFN11 transcript (microarray) [10, 11]: one of the most significantly downregulated transcripts | SLFN11 transcript (microarray) ([10]; Mv4-11 xenograft, single dose 100 mg/kg, 24 hours after treatment): significantly downregulated
